Columns and labels:
[1] = target: Fibroblast growth factor receptor 3 (Homo sapiens) (UniProt P22607); conditions: Compound concentration 20.0 uM, Protein concentration 2.0 uM, Result type QC Liability
Description: Thermal Shift Assay. Domain: start/stop: P449-E759

[2] = target: T1, Peregrin (Homo sapiens) (UniProt P55201); conditions: Compound concentration 20.0 uM, Protein concentration 2.0 uM, Result type QC Liability
T1 sequence (whole entry): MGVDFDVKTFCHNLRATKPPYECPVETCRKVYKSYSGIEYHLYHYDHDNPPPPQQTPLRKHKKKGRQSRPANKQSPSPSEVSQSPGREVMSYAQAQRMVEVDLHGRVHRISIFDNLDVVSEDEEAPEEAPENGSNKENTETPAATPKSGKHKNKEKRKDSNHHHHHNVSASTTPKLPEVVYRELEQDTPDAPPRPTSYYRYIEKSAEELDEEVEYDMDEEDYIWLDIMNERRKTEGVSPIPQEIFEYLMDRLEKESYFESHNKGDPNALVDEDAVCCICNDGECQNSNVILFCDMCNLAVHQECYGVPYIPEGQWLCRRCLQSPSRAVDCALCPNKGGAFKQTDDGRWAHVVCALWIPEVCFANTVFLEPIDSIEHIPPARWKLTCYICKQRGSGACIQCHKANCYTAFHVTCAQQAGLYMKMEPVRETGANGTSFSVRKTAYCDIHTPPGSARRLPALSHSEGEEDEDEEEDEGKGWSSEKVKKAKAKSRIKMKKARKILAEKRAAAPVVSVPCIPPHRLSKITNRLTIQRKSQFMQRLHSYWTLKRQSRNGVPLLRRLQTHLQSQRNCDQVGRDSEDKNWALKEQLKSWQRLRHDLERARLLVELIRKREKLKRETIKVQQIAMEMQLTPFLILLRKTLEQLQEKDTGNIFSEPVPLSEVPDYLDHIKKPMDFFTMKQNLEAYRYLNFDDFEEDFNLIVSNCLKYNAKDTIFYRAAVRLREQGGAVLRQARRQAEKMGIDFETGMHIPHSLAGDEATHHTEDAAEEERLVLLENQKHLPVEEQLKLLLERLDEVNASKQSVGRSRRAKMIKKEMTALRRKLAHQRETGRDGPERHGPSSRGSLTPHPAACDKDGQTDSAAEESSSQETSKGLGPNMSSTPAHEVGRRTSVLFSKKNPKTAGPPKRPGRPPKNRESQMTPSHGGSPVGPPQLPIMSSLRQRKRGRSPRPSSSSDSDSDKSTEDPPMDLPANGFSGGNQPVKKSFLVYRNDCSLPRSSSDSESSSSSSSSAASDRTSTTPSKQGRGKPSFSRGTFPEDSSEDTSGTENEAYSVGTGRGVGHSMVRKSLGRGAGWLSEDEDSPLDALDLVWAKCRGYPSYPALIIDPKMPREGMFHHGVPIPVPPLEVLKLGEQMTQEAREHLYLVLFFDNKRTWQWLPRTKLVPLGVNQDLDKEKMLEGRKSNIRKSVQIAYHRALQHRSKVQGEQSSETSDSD

[3] = target: T2, Protein ENL (Homo sapiens) (UniProt Q03111); assay: Thermal Shift Assay. Domain: start/stop M1-A148; conditions: Compound concentration 25.0 uM, Protein concentration 2.0 uM
T2 sequence (whole entry): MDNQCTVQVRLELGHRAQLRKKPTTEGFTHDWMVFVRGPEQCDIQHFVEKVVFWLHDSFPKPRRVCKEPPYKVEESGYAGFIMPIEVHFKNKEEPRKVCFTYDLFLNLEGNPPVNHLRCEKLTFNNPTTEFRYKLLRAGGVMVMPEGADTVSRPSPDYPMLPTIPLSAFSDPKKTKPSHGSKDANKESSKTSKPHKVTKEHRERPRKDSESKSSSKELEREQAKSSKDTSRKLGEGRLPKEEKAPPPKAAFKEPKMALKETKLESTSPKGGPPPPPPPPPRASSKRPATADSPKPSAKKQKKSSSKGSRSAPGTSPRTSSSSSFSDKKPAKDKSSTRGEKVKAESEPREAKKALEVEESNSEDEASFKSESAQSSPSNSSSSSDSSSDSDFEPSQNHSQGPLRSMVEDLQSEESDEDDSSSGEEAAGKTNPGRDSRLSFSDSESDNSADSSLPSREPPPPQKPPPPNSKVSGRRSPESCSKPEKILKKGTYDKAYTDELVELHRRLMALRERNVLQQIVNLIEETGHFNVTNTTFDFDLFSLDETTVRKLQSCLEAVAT

[4] = target: T3, Protein AF-9 (Homo sapiens) (UniProt P42568); conditions: Compound concentration 25.0 uM, Protein concentration 2.0 uM
T3 sequence (whole entry): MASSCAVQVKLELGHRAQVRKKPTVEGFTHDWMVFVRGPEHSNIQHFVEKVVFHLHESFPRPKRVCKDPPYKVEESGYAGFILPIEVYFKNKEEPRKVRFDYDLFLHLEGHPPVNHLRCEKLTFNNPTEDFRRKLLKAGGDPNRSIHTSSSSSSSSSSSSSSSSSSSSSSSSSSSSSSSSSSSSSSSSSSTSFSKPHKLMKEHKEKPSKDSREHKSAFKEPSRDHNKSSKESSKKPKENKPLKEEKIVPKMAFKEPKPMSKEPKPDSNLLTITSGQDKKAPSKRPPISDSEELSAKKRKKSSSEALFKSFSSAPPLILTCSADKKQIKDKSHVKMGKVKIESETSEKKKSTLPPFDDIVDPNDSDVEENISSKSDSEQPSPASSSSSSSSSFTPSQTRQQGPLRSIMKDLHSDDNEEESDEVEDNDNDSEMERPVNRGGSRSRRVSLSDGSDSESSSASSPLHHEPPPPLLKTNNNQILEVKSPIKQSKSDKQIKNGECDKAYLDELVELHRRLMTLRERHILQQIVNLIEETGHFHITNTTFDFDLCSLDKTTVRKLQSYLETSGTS
Description: Thermal Shift Assay. Domain: start/stop M1-D141

[5] = target: YEATS domain-containing protein 4 (Homo sapiens) (UniProt O95619); assay: Thermal Shift Assay. Domain: start/stop V16-K225; conditions: Compound concentration 25.0 uM, Protein concentration 2.0 uM
Sequence of YEATS domain-containing protein 4 (Homo sapiens) (O95619 whole entry, the tested form may be a part): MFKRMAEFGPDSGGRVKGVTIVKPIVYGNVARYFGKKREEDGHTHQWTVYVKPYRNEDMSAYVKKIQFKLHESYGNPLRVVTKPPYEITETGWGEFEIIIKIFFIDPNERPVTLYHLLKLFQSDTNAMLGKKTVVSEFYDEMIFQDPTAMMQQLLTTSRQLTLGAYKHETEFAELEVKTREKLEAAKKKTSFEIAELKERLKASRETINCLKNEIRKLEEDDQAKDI

Sequence of Fibroblast growth factor receptor 3 (Homo sapiens) (P22607 23-806 limits assumed): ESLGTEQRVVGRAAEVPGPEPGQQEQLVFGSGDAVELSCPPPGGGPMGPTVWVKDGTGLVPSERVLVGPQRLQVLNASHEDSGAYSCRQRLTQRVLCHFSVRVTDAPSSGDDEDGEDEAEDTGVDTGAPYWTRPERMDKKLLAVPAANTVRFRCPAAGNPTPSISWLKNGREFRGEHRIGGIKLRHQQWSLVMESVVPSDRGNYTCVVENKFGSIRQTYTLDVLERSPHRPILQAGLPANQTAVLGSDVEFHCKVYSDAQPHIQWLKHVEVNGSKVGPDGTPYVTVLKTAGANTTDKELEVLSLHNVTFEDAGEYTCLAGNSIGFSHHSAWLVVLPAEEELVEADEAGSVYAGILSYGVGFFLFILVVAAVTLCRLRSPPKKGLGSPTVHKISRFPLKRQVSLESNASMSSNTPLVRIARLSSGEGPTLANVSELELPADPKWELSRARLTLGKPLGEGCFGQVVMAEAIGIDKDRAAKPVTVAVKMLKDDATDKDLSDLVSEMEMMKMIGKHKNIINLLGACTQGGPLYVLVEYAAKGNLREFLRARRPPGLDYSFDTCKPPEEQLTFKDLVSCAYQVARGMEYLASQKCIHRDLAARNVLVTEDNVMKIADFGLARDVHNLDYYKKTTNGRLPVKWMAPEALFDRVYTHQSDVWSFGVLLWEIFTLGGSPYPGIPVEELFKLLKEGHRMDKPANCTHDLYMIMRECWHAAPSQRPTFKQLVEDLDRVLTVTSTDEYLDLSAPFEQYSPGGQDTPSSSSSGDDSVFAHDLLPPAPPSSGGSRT

ΔTm [1]: -0.162 c
ΔTm [2]: -0.349 c
ΔTm [3]: 3.61 c
ΔTm [4]: 5.15 c
ΔTm [5]: -0.19 c
Structure (SMILES): CN(C)C(=O)c1ccc(-c2cc(C(=O)N[C@@H]3CCc4ccccc43)no2)cc1O

— ChEMBL document CHEMBL5058541, “EUbOPEN Chemogenomics Library 2 (NanoBRET)” (2022)
